Assay results taken from patent EP0591378B1, “METHOD OF PREVENTING AND TREATING CHEMOTHERAPY-INDUCED ALOPECIA” (Hairbiotech, Inc., priority 1991, dated 1993).
Values joined by “and” are separate entries in the source; they are usually repeats but may differ in a detail not shown here. Identical values can stand only once. “Also recorded” adds a separate entry of the source.

Experiments:
VP-16-induced alopecia = assay: VP-16 (Etoposide)-induced alopecia in young rats; format: in vivo
Description: Twelve 7 day old rats were randomized in two groups. Group I was treated daily with buffer 0.1 ml s.c. for four days. The second Group was treated daily with Vitamin D3 50µg s.c. over head for four days. After stopping the buffer or Vitamin D3 treatment, all rats received 1.5 mg/kg i.p. of VP-16 (Etoposide) daily for three days.
(§1) Topical Application of 1,25-dihydroxyvitamin D3: • 1,25-Dihydroxyvitamin D3 was dissolved in absolute ethanol and applied topically with an applicator. Control animals were similarly treated with the same amount of ethanol. Animals were then kept individually separated for a period of three hours following which the treated area was carefully washed with soap and water and dried. Treatment was given daily beginning on day 5 after birth and ending on day 10.
Chemotherapy: • All chemotherapies were given I.P. and started at 11 days of age. CTX, 35 mg/kg, was given for one day only. VP-16, 1.5 mg/kg, was given for three days. For CTX and ADM combination, CTX, 25 mg/kg was given for one day and ADM, 2.5 mg/kg, for three days. […] Alopecia was recorded on the tenth day from beginning chemotherapy.
A total of 4 experiments were carried out. In the first experiment, protection from Cytoxan-induced alopecia was examined. The experimental group was pretreated with 0.2 µg of 1,25-dihydroxyvitamin D, in 0.15 ml of absolute ethanol applied topically over the head and neck and the control group received 0.15 ml of alcohol. […] The second experiment was carried out under similar conditions to examine protection from VP-16-induced alopecia. […] The third experiment was designed to examine protection from alopecia induced by Cytoxan-Adriamycin combination. There were 11 rats in each group. […] In the fourth experiment, protection from VP-16-induced alopecia was similarly examined except that the dose of 1,25-dihydroxyvitamin D3 was reduced to 0.1 µg in 0.1 ml absolute ethanol applied topically over the head area only.
as §1, with “RO 23-7553 (1,25 dihydroxy-16-ene-23-yne-cholecalciferol)” for “Topical Application of 1,25-dihydroxyvitamin D3: • 1,25-Dihydroxyvitamin D3”, “9” for “5”, “14.” for “10.”
On day 15 all animals received VP-16, 1.5 mg/kg i.p., for three days. Alopecia was recorded on day 25.
Thirteen rats were randomized in two groups. Experimental group, 7 rats; control group, 6 rats. The experimental group was pretreated with 1 µg of RO 23-7553 in 0.2 ml absolute ethanol applied topically over the neck and back and the control group received 0.2 ml of absolute ethanol.

Cytoxan-induced alopecia = Cytoxan-induced alopecia in young rats; format: in vivo
[1] = system: Cytoxan/Adriamycin-Induced Alopecia; assay: Alopecia induced by Cytoxan/Adriamycin combination in young rats; format: in vivo, Sprague Dawley rats
Description: Eight 4-day old Sprague Dawley rats were randomized in two groups of 4 rats each. […] Group II received buffer injections and served as controls. One day after stopping EGF or buffer injections all rats received Cytoxan 25 mg/kg i.p. x 1 day and Adriamycin 2.5 mg/kg i.p. x 3 days. In Group II, all rats had 3+ alopecia over head and neck area. In contrast, in Group I one rat had mild alopecia, one rat minimal alopecia, and two rats no detectable alopecia over head and neck. (FIGURE 5).
as §1
Chemotherapy: • All chemotherapies were given I.P. and started at 11 days of age. CTX, 35 mg/kg, was given for one day only. VP-16, 1.5 mg/kg, was given for three days. For CTX and ADM combination, CTX, 25 mg/kg was given for one day and ADM, 2.5 mg/kg, for three days. At these doses neither CTX nor ADM alone will produce alopecia. Alopecia was recorded on the tenth day from beginning chemotherapy.
A total of 4 experiments were carried out. […]

ARA-C-induced alopecia = ARA-C-induced alopecia in young rats; format: in vivo, Sprague Dawley rats; details: Alopecic drug Cytarabine (ARA-C) 50 mg/kg i.p. daily for 7 days, 50 µg daily i.p. or s.c. for 4 days prior to chemotherapy, 1 experiment, 8 animals, uniformly observed in all treated animals
Description: Sprague Dawley rats were purchased from Charles River Laboratories, Wilmington, MA. Cytosar-U (ARA-C) was from the Upjohn Company, Kalamazoo, MI. Receptor grade EGF from mouse submaxillary glands, human recombinant EGF, dimethyl sulfoxide (DMSO) and Vitamin D3 were purchased from Sigma Chemical Co., St. Louis, MO. aFGF was purchased from AMGEN Corp., Thousand Oaks, CA.
All rats from each experiment were treated with ARA-C 50 mg/kg intraperitoneally (i.p.) daily for 7 days. For subcutaneous (s.c.) injections, EGF and FGF were prepared in PBS 1% BSA. Alopecia was always recorded on day 12 of experiment, and scored as previously described (Hussein et al, Science, 249:1564-1566, 1990; Jimenez et al, FASEB J., 1991).
For topical treatment, murine EGF was prepared as follows: One vial of EGF (100 µg) was dissolved in 0.2 ml of PBS 1% BSA and 0.12 ml of this solution was added to 0.48 of DMSO. Three hours prior to ARA-C injection, 0.1 ml of the EGF-DMSO mixture was applied to each rat over a 1 cm^2 area between the shoulders using a rubber tip applicator. Rats were then kept individually separated for a period of three hours, following which the treated area was carefully washed with soap and water and dried. Treatment was continued for 7 days. […]
Fourteen 7-day old rats were randomized in two groups. […] Alopecia was recorded on day 12 of experiment. […]

[2] = system: EGF receptors on a cell line established from rat calvaria; details: cited from earlier work
hair growth [3] = assay: Stimulation of hair regrowth on the shaven back of rats; format: in vivo, Sprague Dawley rats; details: observation in treated rats during the chemotherapy-induced alopecia studies
[4] = system: EGF receptors on breast cancer cells; details: cited from earlier work
hair growth [5] = assay: Stimulation of hair regrowth on the shaven back of rats; format: in vivo, Sprague Dawley rats
Description: The backs of nineteen 25 day old Sprague Dawley rats were shaven and randomized in two groups.
Group I (control 10 rats) received 0.1 ml of ethanol applied topically once daily to the shaven area for 14 days.
Group II (Calcitriol 9 rats) received 50 ng of 1,25-dihydroxyvitamin D3 in 0.1 ml of ethanol applied topically once daily to the shaven area for 14 days.
On day 15 stimulation of hair regrowth was assessed by reshaving an area 6 cm x 6 cm in diameter. The hair was collected and weighed. The difference between two groups was highly statistically significant. P. value 0.003 (see Table III and Figure 11).

With C=C1CC[C@H](O)C/C1=C/C=C1\CCC[C@]2(C)[C@@H]([C@H](C)CCCC(C)C)CC[C@@H]12 [Vitamin D3] the Protection from alopecia (VP-16-induced alopecia; 50µg s.c. over head daily for four days, then VP-16 1.5 mg/kg i.p. daily for three days, 7 day old rats) was “protected”, the Protection from alopecia (VP-16-induced alopecia; Alopecic drug Etoposide (VP-16) 1.5 mg/kg i.p. daily for 3 days, 50 µg daily i.p. or s.c. for 4 days prior to chemotherapy, 2 experiments, 22 animals, uniformly observed in all treated animals) was “excellent protection and Yes*” and the Protection from alopecia (Cytoxan-induced alopecia; Alopecic drug Cytoxan (CTX) 32.5 mg/kg single injection, 50 µg daily i.p. or s.c. for 4 days prior to chemotherapy, 7 experiments, 89 animals, uniformly observed in all treated animals, 32.5 mg/kg) was “excellent protection and Yes*”. For the same compound, the Protection from alopecia ([1]; Adriamycin 2.5 mg/kg i.p. daily for 3 days plus Cytoxan 25 mg/kg single injection, 50 µg daily i.p. or s.c. for 4 days prior to chemotherapy, 6 experiments, 77 animals, uniformly observed in all treated animals) was “excellent protection and Yes*” and the Protection from alopecia (ARA-C-induced alopecia) was “excellent protection and Yes*”.

In the case of C=C1/C(=C\C=C2/CCC[C@]3(C)[C@@H]([C@H](C)CCCC(C)(C)O)CC[C@@H]23)C[C@@H](O)C[C@@H]1O [1,25-dihydroxyvitamin D3], the “effect on EGF receptors on a cell line established from rat calvaria” value [2] is given as “increase”, the “coat of hair and hair length in the treated area” value (hair growth [3]) is given as “better coat of hair and longer hair in the treated area” and the “protection from VP-16-induced alopecia” value (VP-16-induced alopecia; applied topically 0.5 µg daily in 50% ethanol or DMSO) is given as “protected”. The “protection from VP-16-induced alopecia” value (VP-16-induced alopecia; pretreatment 0.1 µg in 0.1 ml absolute ethanol topically over the head area only, VP-16 1.5 mg/kg I.P. for three days, all rats) was “protected primarily at the site of 1,25-dihydroxyvitamin D3 application; also recorded: less generalized and was more limited to the site of application”, the “protection from VP-16-induced alopecia” value (VP-16-induced alopecia; pretreatment 0.2 µg in 0.15 ml absolute ethanol topically over head and neck, VP-16 1.5 mg/kg I.P. for three days, recorded on tenth day, all rats) was “protected; also recorded: not limited to the site of application but involved the entire body” and the “protection from Cytoxan-induced alopecia” value (Cytoxan-induced alopecia; pretreatment 0.2 µg in 0.15 ml absolute ethanol topically over head and neck, day 5 to day 10 after birth, CTX 35 mg/kg I.P. one day, recorded on tenth day, all animals) was “protected”. For the same compound, the “effect on EGF receptors on breast cancer cells” value [4] was “increase”, the “protection from alopecia induced by Cytoxan-Adriamycin combination” value ([1]; pretreatment 0.2 µg in 0.15 ml absolute ethanol topically over head and neck, CTX 25 mg/kg one day and ADM 2.5 mg/kg three days I.P., 11 rats, all rats) was “protected” and the “Hair Weight, Mean S.E.M.” value (hair growth [5]; 50 ng in 0.1 ml ethanol topically once daily for 14 days, 9 rats, day 15, P. value 0.003 versus control (113 ± 8)) was 164 ± 13 Mg. For the same compound, the “Hair Weight (individual rats)” value (hair growth [5]; 50 ng in 0.1 ml ethanol topically once daily to the shaven area for 14 days, reshaved area 6 cm x 6 cm on day 15, listed as Calcitriol) was 135 Mg. and 202 Mg. and 143 Mg. and 150 Mg. and 253 Mg. and 130 Mg. and 177 Mg. and 140 Mg. and 147 Mg.

With C=C1/C(=C\C=C2/CCC[C@]3(C)C([C@H](C)CC#CC(C)(C)O)=CC[C@@H]23)C[C@@H](O)C[C@@H]1O [RO 23-7553, 1,25 dihydroxy-16-ene-23-yne-cholecalciferol] the “protection from VP-16-induced alopecia” value (VP-16-induced alopecia; pretreatment 1 µg in 0.2 ml absolute ethanol topically over neck and back, day 9 to day 14 after birth, VP-16 1.5 mg/kg i.p. three days from day 15, recorded on day 25, 7 rats, all animals) was “protected”.
